# Source: the supplement of paper PMC5908809
# Experiments:
# SNK-6 (IL-2 2.5 ng/mL) [1] = experiment: percent inhibition of viability; higher = more inhibition; details: 72 h
# KHYG-1 (IL-2 2.5 ng/mL) [2] = experiment: as above; details: 72 h
# [3] = test system: normal primary NK cells, pool 3 (3 donors) (IL-2 2.5 ng/mL); experiment: as above; details: 72 h
# IMC-1 (IL-2 20 ng/mL) [4] = experiment: as above; details: 72 h
# NK-92 (IL-2 2.5 ng/mL) [5] = experiment: as above; details: 72 h
# [6] = test system: normal primary NK cells, pool 1 (3 donors) (IL-2 2.5 ng/mL); experiment: as above; details: 72 h
# NKL (IL-2 2.5 ng/mL) [7] = experiment: as above; details: 72 h
# [8] = test system: normal primary NK cells, pool 1 (3 donors), resting (IL-2 0 ng/mL); experiment: as above; details: 72 h
# KAI3 (IL-2 2.5 ng/mL) [9] = experiment: as above; details: 72 h
# NK-YS (IL-2 2.5 ng/mL) [10] = experiment: as above; details: 72 h
# DERL-7 (IL-2 2.5 ng/mL) [11] = experiment: as above; details: 72 h
# [12] = test system: normal primary NK cells, pool 2 (3 donors) (IL-2 2.5 ng/mL); experiment: as above; details: 72 h
# YT (IL-2 2.5 ng/mL) [13] = experiment: as above; details: 72 h
# [14] = test system: normal NK cells expanded with K562-aAPC; experiment: as above; details: 72 h, IL-2 2.5 ng/mL
# Description: (§1)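 Drug sensitivity and resistance testing on K562-aAPC-expanded normal NK cells: 5 concentrations (10-fold steps over a 10,000-fold range), 72 h at 37 °C, viability by CellTiter-Glo normalised to DMSO and benzethonium chloride controls; DSS from the fitted curve.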
# [15] = test system: normal NK cells expanded with K562-aAPC; experiment: drug sensitivity score (DSS) (DSS units); higher = more sensitive; extreme values may be limits of the assay; details: 72 h; IL-2 2.5 ng/mL
# Description: as §1
# SNK-6 (IL-2 2.5 ng/mL) [16] = experiment: as above; details: 72 h
# KHYG-1 (IL-2 2.5 ng/mL) [17] = experiment: as above; details: 72 h
# [18] = test system: normal primary NK cells, pool 3 (3 donors) (IL-2 2.5 ng/mL); experiment: as above; details: 72 h
# IMC-1 (IL-2 20 ng/mL) [19] = experiment: as above; details: 72 h
# NK-92 (IL-2 2.5 ng/mL) [20] = experiment: as above; details: 72 h
# [21] = test system: normal primary NK cells, pool 1 (3 donors) (IL-2 2.5 ng/mL); experiment: as above; details: 72 h
# NKL (IL-2 2.5 ng/mL) [22] = experiment: as above; details: 72 h
# [23] = test system: normal primary NK cells, pool 1 (3 donors), resting (IL-2 0 ng/mL); experiment: as above; details: 72 h
# KAI3 (IL-2 2.5 ng/mL) [24] = experiment: as above; details: 72 h
# NK-YS (IL-2 2.5 ng/mL) [25] = experiment: as above; details: 72 h
# DERL-7 (IL-2 2.5 ng/mL) [26] = experiment: as above; details: 72 h
# [27] = test system: normal primary NK cells, pool 2 (3 donors) (IL-2 2.5 ng/mL); experiment: as above; details: 72 h
# YT (IL-2 2.5 ng/mL) [28] = experiment: as above; details: 72 h
structure (smiles),measurement,setting,value
COc1cccc2c1c(O)c(C(=O)N(C)c1ccc(C(F)(F)F)cc1)c(=O)n2C [Tasquinimod] (max concentration tested 10000 nM),percent inhibition of viability,SNK-6 (IL-2 2.5 ng/mL) [1]; 1 nM,-5.13%
same,percent inhibition of viability,SNK-6 (IL-2 2.5 ng/mL) [1]; 10 nM,6.31%
same,percent inhibition of viability,SNK-6 (IL-2 2.5 ng/mL) [1]; 100 nM,6.1%
same,percent inhibition of viability,SNK-6 (IL-2 2.5 ng/mL) [1]; 1000 nM,14.1%
same,percent inhibition of viability,SNK-6 (IL-2 2.5 ng/mL) [1]; 10000 nM,15.8%
same,percent inhibition of viability,KHYG-1 (IL-2 2.5 ng/mL) [2]; 1 nM,-2.03%
same,percent inhibition of viability,KHYG-1 (IL-2 2.5 ng/mL) [2]; 10 nM,0.19%
same,percent inhibition of viability,KHYG-1 (IL-2 2.5 ng/mL) [2]; 100 nM,16.6%
same,percent inhibition of viability,KHYG-1 (IL-2 2.5 ng/mL) [2]; 1000 nM,3.8%
same,percent inhibition of viability,KHYG-1 (IL-2 2.5 ng/mL) [2]; 10000 nM,15.4%
same,percent inhibition of viability,[3]; 1 nM,-20.6%
same,percent inhibition of viability,[3]; 10 nM,-6.75%
same,percent inhibition of viability,[3]; 100 nM,-1.92%
same,percent inhibition of viability,[3]; 1000 nM,-3.86%
same,percent inhibition of viability,[3]; 10000 nM,-2.57%
same,percent inhibition of viability,IMC-1 (IL-2 20 ng/mL) [4]; 1 nM,-0.7%
same,percent inhibition of viability,IMC-1 (IL-2 20 ng/mL) [4]; 10 nM,-0.26%
same,percent inhibition of viability,IMC-1 (IL-2 20 ng/mL) [4]; 100 nM,6.03%
same,percent inhibition of viability,IMC-1 (IL-2 20 ng/mL) [4]; 1000 nM,4.89%
same,percent inhibition of viability,IMC-1 (IL-2 20 ng/mL) [4]; 10000 nM,24.9%
same,percent inhibition of viability,NK-92 (IL-2 2.5 ng/mL) [5]; 1 nM,-9.77%
same,percent inhibition of viability,NK-92 (IL-2 2.5 ng/mL) [5]; 10 nM,4.66%
same,percent inhibition of viability,NK-92 (IL-2 2.5 ng/mL) [5]; 100 nM,9.08%
same,percent inhibition of viability,NK-92 (IL-2 2.5 ng/mL) [5]; 1000 nM,0.57%
same,percent inhibition of viability,NK-92 (IL-2 2.5 ng/mL) [5]; 10000 nM,14.6%
same,percent inhibition of viability,[6]; 1 nM,3.81%
same,percent inhibition of viability,[6]; 10 nM,-6.54%
same,percent inhibition of viability,[6]; 100 nM,6.5%
same,percent inhibition of viability,[6]; 1000 nM,-11.9%
same,percent inhibition of viability,[6]; 10000 nM,5.24%
same,percent inhibition of viability,NKL (IL-2 2.5 ng/mL) [7]; 1 nM,-7.64%
same,percent inhibition of viability,NKL (IL-2 2.5 ng/mL) [7]; 10 nM,-0.44%
same,percent inhibition of viability,NKL (IL-2 2.5 ng/mL) [7]; 100 nM,4.18%
same,percent inhibition of viability,NKL (IL-2 2.5 ng/mL) [7]; 1000 nM,-3.6%
same,percent inhibition of viability,NKL (IL-2 2.5 ng/mL) [7]; 10000 nM,2.35%
same,percent inhibition of viability,[8]; 1 nM,8.18%
same,percent inhibition of viability,[8]; 10 nM,-8.58%
same,percent inhibition of viability,[8]; 100 nM,-1.08%
same,percent inhibition of viability,[8]; 1000 nM,-15.9%
same,percent inhibition of viability,[8]; 10000 nM,-8.64%
same,percent inhibition of viability,KAI3 (IL-2 2.5 ng/mL) [9]; 1 nM,-4.26%
same,percent inhibition of viability,KAI3 (IL-2 2.5 ng/mL) [9]; 10 nM,7.35%
same,percent inhibition of viability,KAI3 (IL-2 2.5 ng/mL) [9]; 100 nM,5.88%
same,percent inhibition of viability,KAI3 (IL-2 2.5 ng/mL) [9]; 1000 nM,0.64%
same,percent inhibition of viability,KAI3 (IL-2 2.5 ng/mL) [9]; 10000 nM,16.9%
same,percent inhibition of viability,NK-YS (IL-2 2.5 ng/mL) [10]; 1 nM,0.96%
same,percent inhibition of viability,NK-YS (IL-2 2.5 ng/mL) [10]; 10 nM,4.34%
same,percent inhibition of viability,NK-YS (IL-2 2.5 ng/mL) [10]; 100 nM,12.7%
same,percent inhibition of viability,NK-YS (IL-2 2.5 ng/mL) [10]; 1000 nM,5.52%
same,percent inhibition of viability,NK-YS (IL-2 2.5 ng/mL) [10]; 10000 nM,18.5%
same,percent inhibition of viability,DERL-7 (IL-2 2.5 ng/mL) [11]; 1 nM,-3.57%
same,percent inhibition of viability,DERL-7 (IL-2 2.5 ng/mL) [11]; 10 nM,-2.07%
same,percent inhibition of viability,DERL-7 (IL-2 2.5 ng/mL) [11]; 100 nM,-7.69%
same,percent inhibition of viability,DERL-7 (IL-2 2.5 ng/mL) [11]; 1000 nM,-10.8%
same,percent inhibition of viability,DERL-7 (IL-2 2.5 ng/mL) [11]; 10000 nM,-11.1%
same,percent inhibition of viability,[12]; 1 nM,-8.15%
same,percent inhibition of viability,[12]; 10 nM,-6.65%
same,percent inhibition of viability,[12]; 100 nM,-1.09%
same,percent inhibition of viability,[12]; 1000 nM,-7.24%
same,percent inhibition of viability,[12]; 10000 nM,-2.69%
same,percent inhibition of viability,YT (IL-2 2.5 ng/mL) [13]; 1 nM,-0.31%
same,percent inhibition of viability,YT (IL-2 2.5 ng/mL) [13]; 10 nM,1.63%
same,percent inhibition of viability,YT (IL-2 2.5 ng/mL) [13]; 100 nM,5.58%
same,percent inhibition of viability,YT (IL-2 2.5 ng/mL) [13]; 1000 nM,-0.55%
same,percent inhibition of viability,YT (IL-2 2.5 ng/mL) [13]; 10000 nM,12.3%
same,percent inhibition of viability,[14]; 1 nM,-7.07%
same,percent inhibition of viability,[14]; 10 nM,0.32%
same,percent inhibition of viability,[14]; 100 nM,1.21%
same,percent inhibition of viability,[14]; 1000 nM,7.82%
same,percent inhibition of viability,[14]; 10000 nM,14.8%
same,drug sensitivity score,[15],0.52
same,drug sensitivity score,SNK-6 (IL-2 2.5 ng/mL) [16],1.33
same,drug sensitivity score,KHYG-1 (IL-2 2.5 ng/mL) [17],0.64
same,drug sensitivity score,[18],0
same,drug sensitivity score,IMC-1 (IL-2 20 ng/mL) [19],1.63
same,drug sensitivity score,NK-92 (IL-2 2.5 ng/mL) [20],0.25
same,drug sensitivity score,[21],0
same,drug sensitivity score,NKL (IL-2 2.5 ng/mL) [22],0
same,drug sensitivity score,[23],0
same,drug sensitivity score,KAI3 (IL-2 2.5 ng/mL) [24],0.42
same,drug sensitivity score,NK-YS (IL-2 2.5 ng/mL) [25],0.88
same,drug sensitivity score,DERL-7 (IL-2 2.5 ng/mL) [26],0
same,drug sensitivity score,[27],0
same,drug sensitivity score,YT (IL-2 2.5 ng/mL) [28],0.05
